Our source for the IC50 values is patent US12673944B2, “Compounds having inhibitory activity against glucosylceramide synthase or pharmaceutically acceptable salt thereof, processes for preparing the same, and pharmaceutical compositions comprising the same” (YUHAN CORPORATION, priority 2019, dated 2026).

For assay [1], the target named is T1, glucosylceramide synthase (GCS) (Homo sapiens, UniProt Q16739).
T1 construct: The obtained supernatant was used; host or cells: A549 cells (lysate supernatant after sonication)
T1 sequence (Q16739 1-394): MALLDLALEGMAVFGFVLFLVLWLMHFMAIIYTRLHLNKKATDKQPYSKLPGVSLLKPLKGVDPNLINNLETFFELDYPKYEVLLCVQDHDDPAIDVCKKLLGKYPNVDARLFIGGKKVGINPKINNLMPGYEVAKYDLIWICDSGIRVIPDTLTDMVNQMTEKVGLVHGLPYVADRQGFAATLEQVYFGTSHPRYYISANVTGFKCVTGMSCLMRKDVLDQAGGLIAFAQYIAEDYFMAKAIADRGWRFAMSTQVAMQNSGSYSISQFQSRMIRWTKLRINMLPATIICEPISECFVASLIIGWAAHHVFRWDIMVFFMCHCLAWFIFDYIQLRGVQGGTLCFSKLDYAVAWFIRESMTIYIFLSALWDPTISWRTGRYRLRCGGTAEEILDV
Description: GCS enzyme inhibition assay (A549 cell lysate, NBD C6-ceramide, HPLC fluorescence). Format: biochemical. The conditions noted are these: inhibitory activity against GCS, 37° C., 90 minutes. The gist of the method: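 A549 cell lysate (50 mM HEPES pH 7.3) served as GCS source; reactions ran 90 min at 37° C, were stopped with chloroform/methanol and lipids extracted. Activity taken as GlcCer/(Cer+GlcCer) peak area, normalised between DMSO and ibiglustat controls.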

Assay [2] relates to GM1 production in Jurkat cells. Description: cells. It counts as cell-based.

Each structure is given as a SMILES string. Like-named read-outs stand apart in the source and are kept apart here.

As to `Cc1ccc(-c2ccc3c(c2)OCC(C)(C)C3NC(=O)O[C@@H]2CN3CCC2CC3)cc1C#N` (stereo partly drawn) [Example 199, (S)-quinuclidin-3-yl (7-(3-cyano-4-methylphenyl)-3,3-dimethylchroman-4-yl)carbamate], the half-inhibitory concentration (IC50) in assay [1] was 510 pM; in assay [2] (Homo sapiens, Jurkat, 72 h) it was 3630 pM.
On the same counts, the results for `CC1(C)COc2cc(-c3cc(F)c(F)cc3F)ccc2C1NC(=O)O[C@@H]1CN2CCC1CC2` (stereo partly drawn) [Example 200, (S)-quinuclidin-3-yl (3,3-dimethyl-7-(2,4,5-trifluorophenyl)chroman-4-yl)carbamate] are 490 pM and 1940 pM.
For `CC1(C)COc2cc(-c3ccc(OC(F)(F)F)cc3)ccc2C1NC(=O)O[C@@H]1CN2CCC1CC2` (stereo partly drawn) [Example 201, (S)-quinuclidin-3-yl (3,3-dimethyl-7-(4-(trifluoromethoxy)phenyl)chroman-4-yl)carbamate] the same measures were 410 pM and 1120 pM.
Turning to `CC1(C)COc2cc(-c3ccc(C4CCOCC4)cc3)ccc2C1NC(=O)O[C@@H]1CN2CCC1CC2` (stereo partly drawn) [Example 202, (S)-quinuclidin-3-yl (3,3-dimethyl-7-(4-(tetrahydro-2H-pyran-4-yl)phenyl)chroman-4-yl)carbamate], the IC50 was 280 pM in assay [1] and 470 pM in assay [2] (Homo sapiens, Jurkat, 72 h).
On the same counts, the results for `COc1cc(-c2ccc3c(c2)OCC(C)(C)C3NC(=O)O[C@@H]2CN3CCC2CC3)ccn1` (stereo partly drawn) [Example 203, (S)-quinuclidin-3-yl (7-(2-methoxypyridin-4-yl)-3,3-dimethylchroman-4-yl)carbamate] are 720 pM and 8030 pM.
As for `CC1(C)COc2cc(-c3ccc(N4CCOCC4)c(Cl)c3)ccc2C1NC(=O)O[C@@H]1CN2CCC1CC2` (stereo partly drawn) [Example 205, (S)-quinuclidin-3-yl (7-(3-chloro-4-morpholinophenyl)-3,3-dimethylchroman-4-yl)carbamate], the IC50 in assay [1] worked out at 650 pM; in assay [2] (Homo sapiens, Jurkat, 72 h), 250 pM.
With `COc1ccc(-c2ccc3c(c2)OCC(C)(C)C3NC(=O)O[C@@H]2CN3CCC2CC3)cc1` (stereo partly drawn) [Example 206, (S)-quinuclidin-3-yl (7-(4-methoxyphenyl)-3,3-dimethylchroman-4-yl)carbamate], the IC50 was 500 pM in assay [1] and 10 pM in assay [2] (Homo sapiens, Jurkat, 72 h).
Consider `COc1cncc(-c2ccc3c(c2)OCC(C)(C)C3NC(=O)O[C@@H]2CN3CCC2CC3)c1` (stereo partly drawn) [Example 207, (S)-quinuclidin-3-yl (7-(5-methoxypyridin-3-yl)-3,3-dimethylchroman-4-yl)carbamate], for which the IC50 worked out at 1120 pM in assay [1] and 1060 pM in assay [2] (Homo sapiens, Jurkat, 72 h).
On the same counts, the results for `CC1(C)COc2cc(-c3cc4ccccc4s3)ccc2C1NC(=O)O[C@@H]1CN2CCC1CC2` (stereo partly drawn) [Example 208, (S)-quinuclidin-3-yl (7-(benzo[b]thiophen-2-yl)-3,3-dimethylchroman-4-yl)carbamate] are 1410 pM and 2470 pM.
On the same counts, the results for `CCOc1ccc(-c2ccc3c(c2)OCC(C)(C)C3NC(=O)O[C@@H]2CN3CCC2CC3)cc1` (stereo partly drawn) [Example 209, (S)-quinuclidin-3-yl (7-(4-ethoxyphenyl)-3,3-dimethylchroman-4-yl)carbamate] are 340 pM and 10 pM.
As to `COc1ccc(-c2ccc3c(c2)OCC(C)(C)C3NC(=O)O[C@@H]2CN3CCC2CC3)cc1C(F)(F)F` (stereo partly drawn) [Example 210, (S)-quinuclidin-3-yl (7-(4-methoxy-3-(trifluoromethyl)phenyl)-3,3-dimethylchroman-4-yl)carbamate], the IC50 in assay [1] was found to be 1570 pM; in assay [2] it was 18000 pM.
On to `CC1(C)COc2cc(-c3ccc(C(F)(F)F)cc3)ccc2C1NC(=O)O[C@@H]1CN2CCC1CC2` (stereo partly drawn) [Example 211, (S)-quinuclidin-3-yl (3,3-dimethyl-7-(4-(trifluoromethyl)phenyl)chroman-4-yl)carbamate], for which the concentration for half-maximal inhibition (IC50) in assay [1] was found to be 710 pM; in assay [2] (Homo sapiens, Jurkat, 72 h) it was 1410 pM.
